What was measured:
5 HT2C receptor = target: T1, 5 HT2C receptor (Homo sapiens, UniProt P28335); assay: affinity to the 5 HT2C receptor; type: binding
T1 sequence (P28335 33-458): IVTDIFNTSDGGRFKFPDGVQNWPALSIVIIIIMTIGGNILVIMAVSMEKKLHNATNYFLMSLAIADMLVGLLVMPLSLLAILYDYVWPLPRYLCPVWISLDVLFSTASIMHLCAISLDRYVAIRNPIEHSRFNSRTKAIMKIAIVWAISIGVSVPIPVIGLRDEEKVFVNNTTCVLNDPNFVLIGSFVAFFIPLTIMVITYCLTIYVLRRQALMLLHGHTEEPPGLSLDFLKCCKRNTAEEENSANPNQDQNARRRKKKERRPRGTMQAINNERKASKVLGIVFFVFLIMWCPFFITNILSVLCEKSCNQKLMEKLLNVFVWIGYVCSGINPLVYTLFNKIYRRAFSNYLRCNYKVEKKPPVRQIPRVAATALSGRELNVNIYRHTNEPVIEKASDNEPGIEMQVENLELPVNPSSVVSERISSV

5-HT2A receptors = 5-HT2A receptors (UniProt P14842); assay: in-vitro affinity to 5-HT2A receptors, [3H]ketanserine displacement (Example A1); type: binding
Description: The 5-HT2A receptors are exposed both to [^3H]ketanserine (a substance known for its affinity to the receptor) and also to the test compound. The decrease in the affinity of [^3H]ketanserine to the receptor is an indication of the affinity of the test substance to the 5-HT2A receptor.

SMILES | IC50 (5 HT2C receptor) [µM] | IC50 (5-HT2A receptors) [µM]
CN1CCN(Cc2cnn(-c3ccc(-c4ccncc4)cc3)c2-c2ccccc2F)CC1 [Example 661, 1-[5-(2-Fluorophenyl)-1-(4-pyridin-4-ylphenyl)-1H-pyrazol-4-ylmethyl]-4-methylpiperazine] | 1 | 0.077
c1coc(-c2c(CN3CCNCC3)cnn2-c2ccc(-c3ccc4c(c3)OCO4)cc2)c1 [Example 534, 1-[1-(4-Benzo-1,3-dioxol-5-ylphenyl)-5-furan-2-yl-1H-pyrazol-4-ylmethyl]piperazine] | 0.11 | 0.002
Fc1ccc(-c2ccc(-n3ncc(CN4CCC(COc5ccccn5)CC4)c3-c3ccco3)cc2)cc1 [Example 561, 2-{1-[1-(4′-Fluorobiphenyl-4-yl)-5-furan-2-yl-1H-pyrazol-4-ylmethyl]piperidin-4-ylmethoxy}pyridine] | 1 | 0.009
CN1CCN(Cc2cnn(-c3ccc(-c4ccc(F)cc4)cc3)c2-c2ccoc2)CC1 [Example 586, 1-[1-(4′-Fluorobiphenyl-4-yl)-5-furan-3-yl-1H-pyrazol-4-ylmethyl]-4-methylpiperazine] | 1 | 0.019
CN1CCN(Cc2cnn(-c3ccc(-c4ccc(Cl)s4)cc3)c2-c2ccccc2F)CC1 [Example 589, 1-[1-[4-(5-Chlorothiophen-2-yl)phenyl]-5-(2-fluorophenyl)-1H-pyrazol-4-ylmethyl]-4-methylpiperazine] | 2.8 | 0.02
CN(C)CCCN(C)Cc1cnn(-c2ccc(-c3ccc(F)cc3)cc2)c1-c1ccco1 [Example 659, N-[1-(4′-Fluorobiphenyl-4-yl)-5-furan-2-yl-1H-pyrazol-4-ylmethyl]-N,N′,N′-trimethylpropane-1,3-diamine] | 0.81 | 0.076
CCN1CCN(Cc2cnn(-c3ccc(-c4cccc(F)c4)cc3)c2-c2ccco2)CC1 [Example 570, 1-Ethyl-4-[1-(3′-fluorobiphenyl-4-yl)-5-furan-2-yl-1H-pyrazol-4-ylmethyl]piperazine] | 0.5 | 0.012
COc1ccc(-c2ccc(-n3ncc(CN4CCNCC4)c3-c3ccco3)cc2)cc1 [Example 530, 1-[5-Furan-2-yl-1-(4′-methoxybiphenyl-4-yl)-1H-pyrazol-4-ylmethyl]piperazine] | 0.2 | 0.0011
OC1CCN(Cc2cnn(-c3ccc(-c4ccc5c(c4)OCO5)cc3)c2-c2ccco2)C1 (centres unmarked) [Example 548, 1-[1-(4-Benzo-1,3-dioxol-5-ylphenyl)-5-furan-2-yl-1H-pyrazol-4-ylmethyl]pyrrolidin-3-ol] | 0.41 | 0.0051
Cc1ccc(-c2ccc(-n3ncc(CN4CCN(C)CC4)c3-c3ccccc3F)cc2)cc1F [Example 625, 1-[1-(3′-Fluoro-4′-methylbiphenyl-4-yl)-5-(2-fluorophenyl)-1H-pyrazol-4-ylmethyl]-4-methylpiperazine] | 0.62 | 0.036
CCN(CC)Cc1cnn(-c2ccc(-c3ccc4c(c3)OCO4)cc2)c1-c1ccco1 [Example 602, [1-(4-Benzo-1,3-dioxol-5-ylphenyl)-5-furan-2-yl-1H-pyrazol-4-ylmethyl]diethylamine] | 0.61 | 0.026
COc1ccc(-c2c(CN3CCN(CCN(C)C)CC3)cnn2-c2ccc(-c3ccc(F)cc3)cc2)cc1 [Example 607, (2-{4-[1-(4′-Fluorobiphenyl-4-yl)-5-(4-methoxyphenyl)-1H-pyrazol-4-ylmethyl]-1-piperazinyl}ethyl)dimethylamine] | 1 | 0.029
c1coc(-c2c(CN3CCNCC3)cnn2-c2ccc(-c3ccc4c(c3)OCCO4)cc2)c1 [Example 595, 1-{1-[4-(2,3-Dihydrobenzo-1,4-dioxin-6-yl)phenyl]-5-furan-2-yl-1H-pyrazol-4-ylmethyl}piperazine] | 0.15 | 0.022
CCN1CCN(Cc2cnn(-c3ccc(-c4ccc5c(c4)OCCO5)cc3)c2-n2cccc2)CC1 [Example 600, 1-{1-[4-(2,3-Dihydrobenzo-1,4-dioxin-6-yl)phenyl]-5-pyrrol-1-yl-1H-pyrazol-4-ylmethyl}-4-ethylpiperazine] | 1 | 0.026
COc1ccc(-c2ccc(-n3ncc(CN(C)C)c3-c3ccco3)cc2)cc1 [Example 542, [5-Furan-2-yl-1-(4′-methoxybiphenyl-4-yl)-1H-pyrazol-4-ylmethyl]dimethylamine] | 0.29 | 0.0038
CN1CCN(Cc2cnn(-c3ccc(-c4ccc(F)cc4)cc3)c2-c2cccc(Cl)c2)CC1 [Example 619, 1-[5-(3-Chlorophenyl)-1-(4′-fluorobiphenyl-4-yl)-1H-pyrazol-4-ylmethyl]-4-methylpiperazine] | 1 | 0.034

SMILES | IC50 (5 HT2C receptor) [µM] | IC50 (5-HT2A receptors) [µM]
CN(C)CCN(C)Cc1cnn(-c2ccc(-c3ccc(F)cc3)cc2)c1-c1ccco1 [Example 635, N-[1-(4′-Fluorobiphenyl-4-yl)-5-furan-2-yl-1H-pyrazol-4-ylmethyl]-N,N′,N′-trimethylethane-1,2-diamine] | 1 | 0.041
Cc1ccoc1-c1c(CN2CCC(O)C2)cnn1-c1ccc(-c2ccc(F)cc2)cc1 (centres unmarked) [Example 596, 1-[1-(4′-Fluorobiphenyl-4-yl)-5-(3-methyl-2-furanyl)-1H-pyrazol-4-ylmethyl]pyrrolidin-3-ol] | 1 | 0.022
COc1ccc(-c2ccc(-n3ncc(CN4CCN(C)CC4)c3-c3ccccc3F)cc2)cc1F [Example 585, 1-[1-(3′-Fluoro-4′-methoxybiphenyl-4-yl)-5-(2-fluorophenyl)-1H-pyrazol-4-ylmethyl]-4-methylpiperazine] | 0.76 | 0.019
CCN(CC)Cc1cnn(-c2ccc(-c3cccc(F)c3)cc2)c1-c1ccco1 [Example 606, Diethyl-[1-(3′-fluorobiphenyl-4-yl)-5-furan-2-yl-1H-pyrazol-4-ylmethyl]amine] | 1 | 0.027
CN1CCN(Cc2cnn(-c3ccc(-c4cccc(F)c4)cc3)c2-c2ccccc2F)CC1 [Example 549, 1-[1-(3′-Fluorobiphenyl-4-yl)-5-(2-fluorophenyl)-1H-pyrazol-4-ylmethyl]-4-methylpiperazine] | 0.46 | 0.0054
COc1ccc(-c2ccc(-n3ncc(CN4CCN(C5CCCC5)CC4)c3-c3ccco3)cc2)cc1 [Example 552, 1-Cyclopentyl-4-[5-furan-2-yl-1-(4′-methoxybiphenyl-4-yl)-1H-pyrazol-4-ylmethyl]piperazine] | 2.95 | 0.0061
CCN1CCN(Cc2cnn(-c3ccc(-c4ccc5c(c4)OCCO5)cc3)c2-c2ccco2)CC1 [Example 557, 1-{1-[4-(2,3-Dihydrobenzo-1,4-dioxin-6-yl)phenyl]-5-furan-2-yl-1H-pyrazol-4-ylmethyl}-4-ethylpiperazine] | 0.349 | 0.008
CN1CCN(Cc2cnn(-c3ccc(-c4ccc(Oc5ccccc5)cc4)cc3)c2-c2ccccc2F)CC1 [Example 634, 1-[5-(2-Fluorophenyl)-1-(4′-phenoxybiphenyl-4-yl)-1H-pyrazol-4-ylmethyl]-4-methylpiperazine] | 0.97 | 0.041
c1coc(-c2c(CN3CCN(C4CCCC4)CC3)cnn2-c2ccc(-c3ccc4c(c3)OCO4)cc2)c1 [Example 569, 1-[1-(4-Benzo-1,3-dioxol-5-ylphenyl)-5-furan-2-yl-1H-pyrazol-4-ylmethyl]-4-cyclopentylpiperazine] | 1 | 0.012
CCN1CCN(Cc2cnn(-c3ccc(-c4ccc(F)cc4)cc3)c2-c2ccco2)CC1 [Example 539, 1-Ethyl-4-[1-(4′-fluorobiphenyl-4-yl)-5-furan-2-yl-1H-pyrazol-4-ylmethyl]piperazine] | 0.31 | 0.0036
CC(C)(C)OC(=O)N1CCN(Cc2cnn(-c3ccc(-c4ccc5c(c4)OCO5)cc3)c2-c2ccco2)CC1 [Example 547, tert-Butyl 4-[1-(4-benzo-1,3-dioxol-5-ylphenyl)-5-furan-2-yl-1H-pyrazol-4-ylmethyl]piperazine-1-carboxylate] | 1 | 0.0048
CN(C)C1CCN(Cc2cnn(-c3ccc(-c4ccc(F)cc4)cc3)c2-c2ccco2)C1 (centres unmarked) [Example 537, {1-[1-(4′-Fluorobiphenyl-4-yl)-5-furan-2-yl-1H-pyrazol-4-ylmethyl]pyrrolidin-3-yl}dimethylamine] | 0.62 | 0.0031
COc1ccc(-c2ccc(-n3ncc(CN4CCN(C)CC4)c3-c3ccccc3F)cc2)cc1OC [Example 644, 1-[1-(3′,4′-Dimethoxybiphenyl-4-yl)-5-(2-fluorophenyl)-1H-pyrazol-4-ylmethyl]-4-methylpiperazine] | 1 | 0.049
CN1CCN(Cc2cnn(-c3ccc(-c4cc(F)ccc4F)cc3)c2-c2ccco2)CC1 [Example 624, 1-[1-(2′,5′-Difluorobiphenyl-4-yl)-5-furan-2-yl-1H-pyrazol-4-ylmethyl]-4-methylpiperazine] | 0.28 | 0.036
CN1CCN(Cc2cnn(-c3ccc(-c4ccc(N(C)C)cc4)cc3)c2-c2ccccc2F)CC1 [Example 626, {4′-[5-(2-Fluorophenyl)-4-(4-methylpiperazin-1-ylmethyl)pyrazol-1-yl]biphenyl-4-yl}dimethylamine] | 1 | 0.036

— patent US7842695B2, “Substituted pyrazole compounds” (Merck Patent GmbH, priority 2003, dated 2010)
